Data: patent US20240150345A1, “GCN2 MODULATING COMPOUNDS AND USES THEREOF” (HiberCell, Inc., priority 2021, published 2024)

The molecules below were run against T1, GCN2 (Homo sapiens, UniProt Q9P2K8) (assay: TR-FRET biochemical assay for inhibition of GCN2 activity). Conditions: 2 nM GCN2, 100 nM GFP-eIF2α, 150 μM ATP, 1.5 hours at 25° C.
T1 construct: purchased Carma Biosciences (so in the source)
Method in brief: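 Compounds (11-point, 3-fold series) were incubated with GCN2 (2 nM final), GFP-eIF2α (100 nM final) and 150 μM ATP with 2 mM DTT for 1.5 h at 25 °C. A 1 nM Tb-anti-P-eIF2α solution was then added for 2 h at 25 °C. TR-FRET was read (ex 340 nm, em 495/520 nm) and fitted with a 4-parameter sigmoidal curve.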

T1 sequence (Q9P2K8 whole entry): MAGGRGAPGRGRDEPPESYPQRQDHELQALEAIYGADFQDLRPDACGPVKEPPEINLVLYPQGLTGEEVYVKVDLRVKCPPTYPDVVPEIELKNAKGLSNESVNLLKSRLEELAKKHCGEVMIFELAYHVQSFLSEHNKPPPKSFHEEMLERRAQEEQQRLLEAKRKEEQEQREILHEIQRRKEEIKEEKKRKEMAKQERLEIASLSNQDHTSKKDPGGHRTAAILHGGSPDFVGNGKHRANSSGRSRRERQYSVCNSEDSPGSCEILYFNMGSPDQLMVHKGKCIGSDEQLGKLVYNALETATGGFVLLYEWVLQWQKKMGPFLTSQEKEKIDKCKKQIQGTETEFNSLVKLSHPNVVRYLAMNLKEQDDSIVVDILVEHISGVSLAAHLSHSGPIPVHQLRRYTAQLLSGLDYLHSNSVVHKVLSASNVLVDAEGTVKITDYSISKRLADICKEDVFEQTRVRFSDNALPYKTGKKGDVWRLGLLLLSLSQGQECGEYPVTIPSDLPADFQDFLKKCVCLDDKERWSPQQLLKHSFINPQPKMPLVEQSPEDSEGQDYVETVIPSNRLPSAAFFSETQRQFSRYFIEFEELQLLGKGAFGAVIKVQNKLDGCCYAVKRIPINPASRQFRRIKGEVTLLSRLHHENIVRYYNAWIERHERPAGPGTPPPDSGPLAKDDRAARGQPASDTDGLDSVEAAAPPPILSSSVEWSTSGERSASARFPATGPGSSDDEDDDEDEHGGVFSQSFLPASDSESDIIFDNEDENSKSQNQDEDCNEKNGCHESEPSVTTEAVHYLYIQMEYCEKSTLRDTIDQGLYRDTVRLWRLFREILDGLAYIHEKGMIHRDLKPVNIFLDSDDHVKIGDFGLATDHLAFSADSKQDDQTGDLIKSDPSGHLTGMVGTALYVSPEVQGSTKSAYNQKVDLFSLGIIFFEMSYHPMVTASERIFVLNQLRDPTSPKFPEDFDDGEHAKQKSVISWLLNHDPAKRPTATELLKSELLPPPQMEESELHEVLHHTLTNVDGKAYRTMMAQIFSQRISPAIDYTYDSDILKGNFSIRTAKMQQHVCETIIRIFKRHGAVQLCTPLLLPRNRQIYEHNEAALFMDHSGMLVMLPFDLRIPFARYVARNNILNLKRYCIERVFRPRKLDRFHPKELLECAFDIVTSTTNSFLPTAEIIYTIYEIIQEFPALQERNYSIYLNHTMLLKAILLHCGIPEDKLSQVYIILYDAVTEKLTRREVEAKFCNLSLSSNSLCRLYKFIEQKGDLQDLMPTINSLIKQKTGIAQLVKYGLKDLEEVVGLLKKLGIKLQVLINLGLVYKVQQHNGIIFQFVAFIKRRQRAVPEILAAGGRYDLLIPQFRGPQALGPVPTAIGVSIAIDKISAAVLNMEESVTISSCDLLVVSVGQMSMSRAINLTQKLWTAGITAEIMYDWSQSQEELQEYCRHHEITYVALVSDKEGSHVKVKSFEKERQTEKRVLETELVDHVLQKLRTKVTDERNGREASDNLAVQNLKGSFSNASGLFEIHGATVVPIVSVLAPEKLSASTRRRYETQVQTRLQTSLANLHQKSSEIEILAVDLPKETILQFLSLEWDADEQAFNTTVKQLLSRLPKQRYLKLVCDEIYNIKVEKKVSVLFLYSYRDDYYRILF

COc1ncc(F)cc1S(=O)(=O)Nc1ccc(F)c(COc2cnc3[nH]nc(CC(F)(F)F)c3c2)c1F [Compound 80, N-[2,4-difluoro-3-([[3-(2,2,2-trifluoroethyl)-1H-pyrazolo[3,4-b]pyridin-5-yl]oxy]methyl)phenyl]-5-fluoro-2-methoxypyridine-3-sulfonamide] and COc1ncc(F)cc1S(=O)(=O)Nc1ccc(F)c(COc2cnc3[nH]nc(C(C)(F)F)c3c2)c1F [Compound 81, N-[3-([[3-(1,1-difluoroethyl)-1H-pyrazolo[3,4-b]pyridin-5-yl]oxy]methyl)-2,4-difluorophenyl]-5-fluoro-2-methoxypyridine-3-sulfonamide] cannot be ordered by IC50: < 50 nM for the first, < 50 nM for the second.

COc1ncc(F)cc1S(=O)(=O)Nc1ccc(F)c(COc2cnn3cnc(C)c3c2)c1F [Compound 82, N-[2,4-difluoro-3-[([5-methylimidazo[1,5-b]pyridazin-3-yl]oxy)methyl]phenyl]-5-fluoro-2-methoxypyridine-3-sulfonamide] and COc1ncc(F)cc1S(=O)(=O)Nc1ccc(F)c(COc2cnn3cnc(C(F)(F)F)c3c2)c1F [Compound 83, N-[2,4-difluoro-3-([[5-(trifluoromethyl)imidazo[1,5-b]pyridazin-3-yl]oxy]methyl)phenyl]-5-fluoro-2-methoxypyridine-3-sulfonamide] cannot be ordered by IC50: < 50 nM for the first, < 50 nM for the second.

First: COc1ncc(F)cc1S(=O)(=O)Nc1ccc(F)c(COc2cnc3[nH]nc(-c4ccccc4)c3c2)c1F [Compound 84, N-[2,4-difluoro-3-[([3-phenyl-1H-pyrazolo[3,4-b]pyridin-5-yl]oxy)methyl]phenyl]-5-fluoro-2-methoxypyridine-3-sulfonamide]
Second: COc1ncc(F)cc1S(=O)(=O)Nc1ccc(F)c(COc2cnc3[nH]nc(C)c3c2-c2ccccc2)c1F [Compound 85, N-[2,4-difluoro-3-[([3-methyl-4-phenyl-1H-pyrazolo[3,4-b]pyridin-5-yl]oxy)methyl]phenyl]-5-fluoro-2-methoxypyridine-3-sulfonamide]
The IC50 of the first is lower: < 50 nM for the first, 50 to 500 nM for the second. The first is the more potent here.

First: COc1ncc(F)cc1S(=O)(=O)Nc1ccc(F)c(COc2cnc3[nH]nc(C)c3c2C2CC2)c1F [Compound 86, N-[3-[([4-cyclopropyl-3-methyl-1H-Pyrazolo[3,4-b]pyridin-5-yl]oxy)methyl]-2,4-difluorophenyl]-5-fluoro-2-methoxypyridine-3-sulfonamide]
Second: COc1ncc(F)cc1S(=O)(=O)Nc1ccc(F)c(COc2cnc3[nH]nc(C)c3c2C2CCCC2)c1F [Compound 92, N-(3-(((4-cyclopentyl-3-methyl-1H-pyrazolo[3,4-b]pyridin-5-yl)oxy)methyl)-2,4-difluorophenyl)-5-fluoro-2-methoxypyridine-3-sulfonamide]
The IC50 of the first is lower: 50 to 500 nM for the first, 500 to 1000 nM for the second.

COc1ncc(F)cc1S(=O)(=O)Nc1ccc(F)c(COc2cnc3[nH]nc(C)c3c2-c2ccncc2)c1F [Compound 87, N-[2,4-difluoro-3-([[3-methyl-4-(pyridin-4-yl)-1H-pyrazolo[3,4-b]pyridin-5-yl]oxy]methyl)phenyl]-5-fluoro-2-methoxypyridine-3-sulfonamide] and COc1ncc(F)cc1S(=O)(=O)Nc1ccc(F)c(COc2cnc3[nH]nc(C)c3c2-c2cccnc2)c1F [Compound 91, N-[2,4-difluoro-3-([[3-methyl-4-(pyridin-3-yl)-1H-pyrazolo[3,4-b]pyridin-5-yl]oxy]methyl)phenyl]-5-fluoro-2-methoxypyridine-3-sulfonamide] fall in the same range of IC50: 50 to 500 nM for the first, 50 to 500 nM for the second.

COc1ncc(F)cc1S(=O)(=O)Nc1ccc(F)c(COc2cnc3[nH]nc(C)c3c2C(C)C)c1F [Compound 88, N-[2,4-difluoro-3-[([4-isopropyl-3-methyl-1H-pyrazolo[3,4-b]pyridin-5-yl]oxy)methyl]phenyl]-5-fluoro-2-methoxypyridine-3-sulfonamide] and COc1ncc(F)cc1S(=O)(=O)Nc1ccc(F)c(COc2cnc3[nH]nc(C)c3c2C2CCN(C)CC2)c1F [Compound 93, N-(2,4-difluoro-3-(((3-methyl-4-(1-methylpiperidin-4-yl)-1H-pyrazolo[3,4-b]pyridin-5-yl)oxy)methyl)phenyl)-5-fluoro-2-methoxypyridine-3-sulfonamide] cannot be ordered by IC50: > 1000 nM for the first, > 1000 nM for the second.

Compared with COc1ncc(F)cc1S(=O)(=O)Nc1ccc(F)c(COc2cnc3[nH]nc(C)c3c2Cc2ccccc2)c1F [Compound 89, N-[3-[([4-benzyl-3-methyl-1H-pyrazolo[3,4-b]pyridin-5-yl]oxy)methyl]-2,4-difluorophenyl]-5-fluoro-2-methoxypyridine-3-sulfonamide], COc1ncc(F)cc1S(=O)(=O)Nc1ccc(F)c(COc2cnc3[nH]nc(C)c3c2-c2ccccn2)c1F [Compound 90, N-[2,4-difluoro-3-([[3-methyl-4-(pyridin-2-yl)-1H-pyrazolo[3,4-b]pyridin-5-yl]oxy]methyl)phenyl]-5-fluoro-2-methoxypyridine-3-sulfonamide] is lower in IC50: > 1000 nM for the first, 50 to 500 nM for the second. The second is the more potent here.

Work on COc1ncc(F)cc1S(=O)(=O)Nc1ccc(F)c(COc2cnc3[nH]nc(C)c3c2N2CCCCC2)c1F [Compound 94, N-(2,4-difluoro-3-(((3-methyl-4-(piperidin-1-yl)-1H-pyrazolo[3,4-b]pyridin-5-yl)oxy)methyl)phenyl)-5-fluoro-2-methoxypyridine-3-sulfonamide] yielded an IC50 of 50 to 500 nM.
